# Experimental data: ChEMBL document CHEMBL1129871, “INVESTIGATION OF BIOISOSTERS OF THE GROWTH HORMONE SECRETAGOGUE L-692,429” (Bioorg Med Chem Lett, 1997)
# Non-standard residues stand in square brackets, D forms with d. Residues, ends and D or L forms follow the SMILES beside them.
# Organism: Rattus norvegicus
# Test: The compound was tested in vitro for the growth hormone release in rat pituitary cell assays
# Assay type: functional, Pituitary gland cell
# Conditions: Rattus norvegicus, Pituitary gland cell
row,Structure (SMILES),EC50 [nM]
1,Cc1noc(-c2ccccc2-c2ccc(CN3C(=O)[C@H](NC(=O)CC(C)(C)N)CCc4ccccc43)cc2)n1,1050
2,Cn1ncnc1-c1ccccc1-c1ccc(CN2C(=O)[C@H](NC(=O)CC(C)(C)N)CCc3ccccc32)cc1,265
3,CC(C)(N)CC(=O)N[C@@H]1CCc2ccccc2N(Cc2ccc(-c3sccc3-c3nn[nH]n3)cc2)C1=O,140
4,CC(C)(N)CC(=O)N[C@@H]1CCc2ccccc2N(Cc2ccc(-c3cscc3-c3nn[nH]n3)cc2)C1=O,150
5,CC(C)(N)CC(=O)N[C@@H]1CCc2ccccc2N(Cc2ccc(-n3cccc3-c3nn[nH]n3)cc2)C1=O,275
6,CC(C)(N)CC(=O)N[C@@H]1CCc2ccccc2N(Cc2ccc(-c3ccccc3-c3nc[nH]n3)cc2)C1=O,90
7,CC(C)(N)CC(=O)N[C@@H]1CCc2ccccc2N(Cc2ccc(-c3cccnc3-c3nn[nH]n3)cc2)C1=O,2350
8,COc1nsnc1-c1ccccc1-c1ccc(CN2C(=O)[C@H](NC(=O)CC(C)(C)N)CCc3ccccc32)cc1,1800
9,CC(C)(N)CC(=O)N[C@@H]1CCc2ccccc2N(Cc2ccc(-c3ccccc3-c3ncno3)cc2)C1=O,30
10,Cc1nnc(-c2cscc2-c2ccc(CN3C(=O)[C@H](NC(=O)CC(C)(C)N)CCc4ccccc43)cc2)o1,125
11,CC(C)(N)CC(=O)N[C@@H]1CCc2ccccc2N(Cc2ccc(-c3ccccc3C(=O)O)cc2)C1=O,2500
12,C[C@H](NC(=O)[C@@H](Cc1c[nH]c2ccccc12)NC(=O)[C@@H](N)Cc1c[nH]cn1)C(=O)N[C@@H](Cc1c[nH]c2ccccc12)C(=O)N[C@H](Cc1ccccc1)C(=O)N[C@@H](CCCCN)C(N)=O (H-H[dW]AW[dF]K-NH2),2

# Same assay, conditions: pituitary gland cell
row,Structure (SMILES),EC50 [nM]
1,CC(C)(N)CC(=O)N[C@@H]1CCc2ccccc2N(Cc2ccc(-c3ccccc3-c3nn[nH]n3)cc2)C1=O,125
